Assay results as given in patent US7329652B2, “Diaminotriazole compounds useful as protein kinase inhibitors” (Vertex Pharamaceuticals Incorporated, priority 2004, dated 2008).

How the values were obtained:
[1] = biological target: JAK-2 enzyme (Homo sapiens, UniProt O60674); test: JAK2 inhibition assay (radiometric 33P filter assay); format: biochemical; details: 15 μM poly(Glu)4Tyr, 12 μM ATP; read-out: JAK2 inhibition data (Ki)
Protocol: (§1) Compounds were screened for their ability to inhibit JAK using the assay shown below. Reactions were carried out in a kinase buffer containing 100 mM HEPES (pH 7.4), 1 mM DTT, 10 mM MgCl2, 25 mM NaCl, and 0.01% BSA.
(§2) Substrate concentrations in the assay were 5 μM ATP (200 uCi/μmole ATP) and 1 μM poly(Glu)4Tyr. Reactions were carried out at 25° C. and 1 nM JAK3.
(§3) To each well of a 96 well polycarbonate plate was added 1.5 μl of a candidate JAK3 inhibitor along with 50 μl of kinase buffer containing 2 μM poly(Glu)4Tyr and 10 μM ATP. This was then mixed and 50 μl of kinase buffer containing 2 nM JAK3 enzyme was added to start the reaction. After 20 minutes at room temperature (25° C.), the reaction was stopped with 50 μl of 20% trichloroacetic acid (TCA) that also contained 0.4 mM ATP. The entire contents of each well were then transferred to a 96 well glass fiber filter plate using a TomTek Cell Harvester. After washing, 60 μl of scintillation fluid was added and ^33P incorporation detected on a Perkin Elmer TopCount.
The assays were as described above in Example 25 except that JAK-2 enzyme was used, the final poly(Glu)4Tyr concentration was 15 μM, and final ATP concentration was 12 μM.

[2] = biological target: T1, JAK3 (Homo sapiens, UniProt P52333); test: JAK3 inhibition assay (radiometric 33P filter assay); format: biochemical; details: 1 μM poly(Glu)4Tyr, 5 μM ATP, 1 nM JAK3, 25° C.; read-out: JAK3 inhibition data (Ki)
T1 sequence (P52333 1-1124): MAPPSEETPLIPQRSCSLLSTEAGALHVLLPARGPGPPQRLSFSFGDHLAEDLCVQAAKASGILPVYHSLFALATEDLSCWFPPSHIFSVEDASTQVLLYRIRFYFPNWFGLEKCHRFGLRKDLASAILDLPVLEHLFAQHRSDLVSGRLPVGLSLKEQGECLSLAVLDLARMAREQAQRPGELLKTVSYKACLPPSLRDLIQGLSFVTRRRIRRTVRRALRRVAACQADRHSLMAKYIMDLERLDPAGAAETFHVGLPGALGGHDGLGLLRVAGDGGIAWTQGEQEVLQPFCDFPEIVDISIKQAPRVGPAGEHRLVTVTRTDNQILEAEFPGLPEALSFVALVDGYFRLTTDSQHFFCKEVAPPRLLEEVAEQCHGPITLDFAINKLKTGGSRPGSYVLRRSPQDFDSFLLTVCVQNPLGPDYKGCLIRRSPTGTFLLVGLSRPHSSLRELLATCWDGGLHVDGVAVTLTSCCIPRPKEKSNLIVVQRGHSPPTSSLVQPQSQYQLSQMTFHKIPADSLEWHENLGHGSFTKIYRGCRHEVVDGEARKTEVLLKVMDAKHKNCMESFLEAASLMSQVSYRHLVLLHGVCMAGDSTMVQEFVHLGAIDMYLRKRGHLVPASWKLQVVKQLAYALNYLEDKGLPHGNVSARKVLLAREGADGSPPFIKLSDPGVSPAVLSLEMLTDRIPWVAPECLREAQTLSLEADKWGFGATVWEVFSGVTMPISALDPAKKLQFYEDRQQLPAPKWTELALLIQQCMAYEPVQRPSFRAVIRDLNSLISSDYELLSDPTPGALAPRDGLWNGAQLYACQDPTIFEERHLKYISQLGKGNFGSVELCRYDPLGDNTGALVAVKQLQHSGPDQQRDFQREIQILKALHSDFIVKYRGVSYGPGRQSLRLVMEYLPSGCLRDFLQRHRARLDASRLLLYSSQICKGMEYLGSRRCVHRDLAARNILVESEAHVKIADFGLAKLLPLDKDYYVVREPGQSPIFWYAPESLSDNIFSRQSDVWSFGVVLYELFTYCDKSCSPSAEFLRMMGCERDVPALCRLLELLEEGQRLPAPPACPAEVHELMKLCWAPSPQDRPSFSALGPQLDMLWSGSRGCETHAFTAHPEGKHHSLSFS
Protocol: as §1, §2, §3

Sequence of JAK-2 enzyme (O60674 whole entry, species assumed): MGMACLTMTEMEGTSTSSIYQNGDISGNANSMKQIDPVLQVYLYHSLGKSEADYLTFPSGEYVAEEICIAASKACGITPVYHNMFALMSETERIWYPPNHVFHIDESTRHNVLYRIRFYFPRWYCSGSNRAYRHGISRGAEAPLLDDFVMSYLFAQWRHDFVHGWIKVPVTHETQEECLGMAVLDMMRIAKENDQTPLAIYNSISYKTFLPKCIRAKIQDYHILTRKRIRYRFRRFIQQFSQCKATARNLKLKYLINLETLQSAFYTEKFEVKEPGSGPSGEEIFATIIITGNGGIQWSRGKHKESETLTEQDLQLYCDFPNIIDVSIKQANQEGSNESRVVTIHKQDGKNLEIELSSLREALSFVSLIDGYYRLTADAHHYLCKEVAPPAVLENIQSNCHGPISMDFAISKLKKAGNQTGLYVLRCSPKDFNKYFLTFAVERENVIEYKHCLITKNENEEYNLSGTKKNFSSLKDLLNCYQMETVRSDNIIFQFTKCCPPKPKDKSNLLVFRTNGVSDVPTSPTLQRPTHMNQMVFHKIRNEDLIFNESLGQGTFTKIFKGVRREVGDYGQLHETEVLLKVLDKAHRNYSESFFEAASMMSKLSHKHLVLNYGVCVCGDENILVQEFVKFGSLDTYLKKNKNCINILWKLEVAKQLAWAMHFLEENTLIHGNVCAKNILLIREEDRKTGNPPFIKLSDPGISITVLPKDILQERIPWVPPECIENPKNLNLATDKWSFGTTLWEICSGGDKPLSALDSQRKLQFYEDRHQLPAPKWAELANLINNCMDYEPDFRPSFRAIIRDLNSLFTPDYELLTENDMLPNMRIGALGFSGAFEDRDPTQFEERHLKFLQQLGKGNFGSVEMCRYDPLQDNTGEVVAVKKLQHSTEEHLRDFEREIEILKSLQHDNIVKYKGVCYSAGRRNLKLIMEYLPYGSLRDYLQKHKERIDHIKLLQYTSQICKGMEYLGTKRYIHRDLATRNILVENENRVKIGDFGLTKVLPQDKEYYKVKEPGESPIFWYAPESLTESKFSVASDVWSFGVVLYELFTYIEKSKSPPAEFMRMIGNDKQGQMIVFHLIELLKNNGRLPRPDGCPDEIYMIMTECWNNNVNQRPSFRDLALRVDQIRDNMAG

Row | SMILES | Ki [1] | Ki [2]
1 | CCCOC(=O)N1CCN(c2ccc(Nc3nc(N)n(-c4ccnc(N5CCCN(S(=O)(=O)CCC)CC5)c4)n3)cc2)CC1 [Compound 164] | 50 to 500 nM | 50 to 500 nM
2 | CC(=O)N1[C@H](C)CN(c2cc(-n3nc(Nc4ccc(NC(=O)NC(C)C)cc4)nc3N)ncn2)C[C@@H]1C [Compound 69] | < 50 nM | < 50 nM
3 | COC1CCC(C(=O)Nc2ccc(Nc3nc(N)n(-c4cc(N5CCCN(C(C)=O)CC5)ncn4)n3)cc2)CC1 (centres unmarked) [Compound 31] | < 50 nM | < 50 nM
4 | CC(=O)N1[C@H](C)CN(c2cc(-n3nc(Nc4ccc(NC(=O)OCC(C)(C)C)cc4)nc3N)ncn2)C[C@@H]1C [Compound 80] | < 50 nM | < 50 nM
5 | CCCOC(=O)N1CCN(c2ccc(Nc3nc(N)n(-c4ccnc(N5CCCN(S(=O)(=O)CC)CC5)c4)n3)cc2)CC1 [Compound 163] | 50 to 500 nM | 50 to 500 nM
6 | CC(=O)N1CCCN(c2cc(-n3nc(Nc4ccc(NC(=O)c5ccncc5)cc4)nc3N)ncn2)CC1 [Compound 28] | < 50 nM | < 50 nM
7 | COC(=O)N(C)c1ccc(Nc2nc(N)n(-c3cc(N4CCCN(C(C)=O)CC4)ncn3)n2)cc1 [Compound 126] | < 50 nM | < 50 nM
8 | CC(=O)Nc1ccc(Nc2nc(N)n(-c3cc(N4CCCN(C(C)=O)CC4)ncn3)n2)cc1 [Compound 11] | < 50 nM | < 50 nM
9 | CCOC(=O)Nc1ccc(Nc2nc(N)n(-c3cc(N4CCCN(C(=O)CC#N)CC4)ncn3)n2)cc1 [Compound 137] | < 50 nM | < 50 nM
10 | CCS(=O)(=O)N1CCN(c2ccc(Nc3nc(N)n(-c4ccnc(N5CCCN(C(=O)OC(C)C)CC5)c4)n3)cc2)CC1 [Compound 155] | 50 to 500 nM | 50 to 500 nM
11 | COCC(=O)N1CCCN(c2cc(-n3nc(Nc4ccc(N5CCOCC5)cc4)nc3N)ncn2)CC1 [Compound 5] | < 50 nM | < 50 nM
12 | Nc1nc(Nc2ccc(N3CCOCC3)cc2)nn1-c1ccnc(N2CCCOCC2)c1 [Compound 14] | 50 to 500 nM | 50 to 500 nM
13 | CC(=O)N1CCCN(c2cc(-n3nc(Nc4ccc(N5CCN(C(=O)C6CCOCC6)CC5)cc4)nc3N)ncn2)CC1 [Compound 41] | < 50 nM | < 50 nM
14 | CCCOC(=O)N1CCN(c2ccc(Nc3nc(N)n(-c4ccnc(N5CCCN(C(=O)OCC)CC5)c4)n3)cc2)CC1 [Compound 159] | 50 to 500 nM | 50 to 500 nM
15 | CC(C)(C)OC(=O)N1CCN(c2ccc(Nc3nc(N)n(-c4cc(N5CCCN(C(=O)CC#N)CC5)ncn4)n3)cc2)CC1 [Compound 122] | < 50 nM | < 50 nM
16 | CC(=O)N1CCCN(c2cc(-n3nc(Nc4ccc(N5CCN(C(=O)OCC(C)(C)C)CC5)cc4)nc3N)ncn2)CC1 [Compound 49] | < 50 nM | < 50 nM
17 | CC(=O)N1CCCN(c2cc(-n3nc(Nc4ccc(N(C)C(=O)OC(C)C)cc4)nc3N)ncn2)CC1 [Compound 130] | < 50 nM | < 50 nM
18 | CCOC(=O)N1CCN(c2ccc(Nc3nc(N)n(-c4ccnc(N5CCCN(C(=O)OC)CC5)c4)n3)cc2)CC1 [Compound 148] | 50 to 500 nM | 50 to 500 nM
19 | CC(=O)N1[C@H](C)CN(c2cc(-n3nc(Nc4ccc(NC(=O)NC(C)(C)C)cc4)nc3N)ncn2)C[C@@H]1C [Compound 70] | < 50 nM | < 50 nM
20 | CCOC(=O)N(C)c1ccc(Nc2nc(N)n(-c3cc(N4CCCN(C(C)=O)CC4)ncn3)n2)cc1 [Compound 127] | < 50 nM | < 50 nM
21 | CCOC(=O)Nc1ccc(Nc2nc(N)n(-c3cc(N4C[C@@H](C)N(C(C)=O)[C@@H](C)C4)ncn3)n2)cc1 [Compound 76] | < 50 nM | < 50 nM
22 | CC(=O)N1CCCN(c2cc(-n3nc(Nc4ccc(NC(=O)NC(C)C)cc4)nc3N)ncn2)CC1 [Compound 86] | < 50 nM | < 50 nM

Row | SMILES | Ki [1] | Ki [2]
23 | CCCOC(=O)N1CCN(c2ccc(Nc3nc(N)n(-c4ccnc(N5CCCN(S(C)(=O)=O)CC5)c4)n3)cc2)CC1 [Compound 162] | 50 to 500 nM | 50 to 500 nM
24 | CC(=O)N1CCCN(c2cc(-n3nc(Nc4ccc(NC(=O)C5CCC(C)CC5)cc4)nc3N)ncn2)CC1 (centres unmarked) [Compound 24] | < 50 nM | < 50 nM
25 | CCOC(=O)Nc1ccc(Nc2nc(N)n(-c3ccnc(N4CCCN(C(C)=O)CC4)c3)n2)cc1 [Compound 171] | 50 to 500 nM | < 50 nM
26 | CCCOC(=O)N1CCN(c2ccc(Nc3nc(N)n(-c4cc(N5C[C@@H](C)N(C(C)=O)[C@@H](C)C5)ncn4)n3)cc2)CC1 [Compound 55] | < 50 nM | < 50 nM
27 | CC(=O)N1[C@H](C)CN(c2cc(-n3nc(Nc4ccc(N5CCNCC5)cc4)nc3N)ncn2)C[C@@H]1C [Compound 59] | < 50 nM | < 50 nM
28 | CCCNC(=O)N1CCN(c2ccc(Nc3nc(N)n(-c4cc(N5C[C@@H](C)N(C(C)=O)[C@@H](C)C5)ncn4)n3)cc2)CC1 [Compound 61] | < 50 nM | < 50 nM
29 | CCOC(=O)Nc1ccc(Nc2nc(N)n(-c3ccnc(N4C[C@@H](C)N(C(C)=O)[C@@H](C)C4)c3)n2)cc1 [Compound 101] | < 50 nM | < 50 nM
30 | CC(=O)N1[C@H](C)CN(c2cc(-n3nc(Nc4ccc(N5CCOCC5)cc4)nc3N)ccn2)C[C@@H]1C [Compound 17] | < 50 nM | < 50 nM
31 | COC(=O)Nc1ccc(Nc2nc(N)n(-c3ccnc(N4CCCN(C(C)=O)CC4)c3)n2)cc1 [Compound 170] | 50 to 500 nM | 50 to 500 nM
32 | CC(=O)N1[C@H](C)CN(c2cc(-n3nc(Nc4ccc(NC(=O)OCC(C)C)cc4)nc3N)ccn2)C[C@@H]1C [Compound 100] | < 50 nM | < 50 nM
33 | Nc1nc(Nc2ccc(N3CCOCC3)cc2)nn1-c1cc(N2CCCN(C(=O)CC(F)(F)F)CC2)ncn1 [Compound 9] | < 50 nM | < 50 nM
34 | CCCCS(=O)(=O)N1CCCN(c2cc(-n3nc(Nc4ccc(N5CCN(C(=O)OCC)CC5)cc4)nc3N)ccn2)CC1 [Compound 147] | 50 to 500 nM | 50 to 500 nM
35 | CC(=O)N1CCCN(c2cc(-n3nc(Nc4ccc(N5CCN(C(=O)Oc6ccc(C)cc6)CC5)cc4)nc3N)ncn2)CC1 [Compound 51] | < 50 nM | < 50 nM
36 | Nc1nc(Nc2ccc(N3CCOCC3)cc2)nn1-c1cc(N2CCN3C(=O)CC[C@@H]3C2)ncn1 [Compound 23] | < 50 nM | < 50 nM
37 | CCCC1CCC(C(=O)Nc2ccc(Nc3nc(N)n(-c4cc(N5CCCN(C(C)=O)CC5)ncn4)n3)cc2)CC1 (centres unmarked) [Compound 25] | 50 to 500 nM | 50 to 500 nM
38 | CCOC(=O)CCNC(=O)Nc1ccc(Nc2nc(N)n(-c3cc(N4C[C@@H](C)N(C(C)=O)[C@@H](C)C4)ncn3)n2)cc1 [Compound 72] | < 50 nM | < 50 nM
39 | CC(=O)N1[C@H](C)CN(c2cc(-n3nc(Nc4ccc(NC(=O)CC(C)C)cc4)nc3N)ccn2)C[C@@H]1C [Compound 111] | < 50 nM | < 50 nM
40 | CC(=O)N1CCCN(c2cc(-n3nc(Nc4ccc(NC(=O)O[C@@H]5C[C@@H](C)CC[C@@H]5C(C)C)cc4)nc3N)ncn2)CC1 [Compound 98] | 50 to 500 nM | 50 to 500 nM
41 | Nc1nc(Nc2ccc(N3CCOCC3)cc2)nn1-c1ccnc(N2CCCCCC2)c1 [Compound 19] | < 50 nM | < 50 nM
42 | CC(=O)Nc1ccc(Nc2nc(N)n(-c3cc(N4C[C@@H](C)N(C(C)=O)[C@@H](C)C4)ncn3)n2)cc1 [Compound 112] | < 50 nM | < 50 nM
43 | COC(=O)N1CCN(c2ccc(Nc3nc(N)n(-c4cc(N5CCCN(C(C)=O)CC5)ncn4)n3)cc2)CC1 [Compound 45] | < 50 nM | < 50 nM
